# Assay results published in patent US20250074906A1, “AZAINDOLE DERIVATIVE THAT INHIBITS H-PGDS” (SATO PHARMACEUTICAL CO., LTD., priority 2021, published 2025).
# Molecular target: T1, Recombinant human H-PGDS (Homo sapiens, UniProt O60760)
# T1 construct: made in house; host or cells: E. coli
# Test: H-PGDS inhibitory activity (prostaglandin D2 production measured by LC-MS/MS)
# Type: biochemical
# Conditions: recombinant human H-PGDS 1.0 nM expressed in E. coli; prostaglandin H2 25 μM; 15 min preincubation and 1 min reaction on ice
# Procedure: The H-PGDS inhibitory activity of each Example compound was measured according to the method described in WO 2007/041634.
# Recombinant human H-PGDS (final concentration: 1.0 nM) expressed in E. coli was mixed in an assay buffer containing 20 mM Tris-HCl (pH 8.0), 2 mM magnesium chloride, 2 mM reduced glutathione, and 0.5 mg/mL γ-globulin, and 150 μL of the mixture was dispensed into an 8-strip PCR tube (BM Equipment Co., Ltd). Test compounds (Example compounds) (16.5 μL) at various concentrations dissolved in DMSO were added and the mixture was preincubated for 15 minutes on ice.
# Prostaglandin H2 (final concentration: 25 μM) (Cayman Chemical) was dispensed into another 8-strip PCR tube, and the solvent was dried and solidified using a vacuum concentrator (Thermo Fisher Scientific). To the dried and solidified prostaglandin H2 was added 50 μL of the assay buffer containing H-PGDS and each test compound after the preincubation, and the mixture was reacted on ice for 1 minute. 40 μL of this mixture was added to 40 μL of a stop solution (50 mM aqueous citric acid solution containing iron chloride at a final concentration of 4 mg/mL) to stop the reaction. Then, the reaction solution was deproteinized, added to a 96 square deep well plate (SHONANMARUHACHI STEC Co., Ltd.), and the prostaglandin D2 concentration in the reaction solution was measured by LC-MS/MS. ACQUITY (registered trademark) TQD (Waters) was used as a measuring instrument.
# Prostaglandin D2 production activity (%) in the group with each test compound when a value obtained by subtracting the amount of production of prostaglandin D2 in the group without enzyme, which is non-specific production of prostaglandin D2, from the amount of production of prostaglandin D2 in the group without test compound (DMSO-addition group) in each 8-strip PCR tube is 100% was calculated. From the calculated activity value, the test compound concentration that inhibits prostaglandin D2 production by 50% (IC50) was determined.
# T1 sequence (O60760 whole entry): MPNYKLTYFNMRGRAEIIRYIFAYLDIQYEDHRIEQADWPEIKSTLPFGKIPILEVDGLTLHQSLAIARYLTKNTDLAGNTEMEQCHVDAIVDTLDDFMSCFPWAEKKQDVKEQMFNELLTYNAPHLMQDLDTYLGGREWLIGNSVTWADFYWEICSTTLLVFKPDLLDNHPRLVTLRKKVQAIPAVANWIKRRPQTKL
row,Structure (SMILES),IC50 [nM]
1,"C[C@]1(O)CC[C@@H](NC(=O)c2ccc(-c3ncc(Cl)c4[nH]ccc34)cc2)CC1 [Example 31, 4-(7-chloro-1H-pyrrolo[3,2-c]pyridin-4-yl)-N-(cis-4-hydroxy-4-methylcyclohexyl)benzamide]",1
2,"CC(C)(O)[C@H]1CC[C@H](NC(=O)c2ccc(-c3ncc(C#N)c4[nH]ccc34)cc2)CC1 [Example 15, 4-(7-cyano-1H-pyrrolo[3,2-c]pyridin-4-yl)-N-[trans-4-(2-hydroxypropan-2-yl)cyclohexyl]benzamide]",3.4
3,"O=C(N[C@H]1CC[C@H](O)CC1)c1ccc(-c2ncc(F)c3[nH]ccc23)cc1 [Example 20, 4-(7-fluoro-1H-pyrrolo[3,2-c]pyridin-4-yl)-N-(trans-4-hydroxycyclohexyl)benzamide]",0.94
4,"CC(C)(O)[C@H]1CC[C@H](NC(=O)c2ccc(-c3ncc(F)c4[nH]ncc34)cc2)CC1 [Example 46, 4-(7-fluoro-1H-pyrazolo[4,3-c]pyridin-4-yl)-N-[trans-4-(2-hydroxypropan-2-yl)cyclohexyl]benzamide]",5.3
5,"O=C(NC12CCC(O)(CC1)C2)c1ccc(-c2nccc3[nH]ccc23)c(F)c1 [Example 10, 3-fluoro-N-(4-hydroxybicyclo[2.2.1]heptan-1-yl)-4-(1H-pyrrolo[3,2-c]pyridin-4-yl)benzamide]",1
6,"O=C(NC12CCC(O)(CC1)C2)c1ccc(-c2ncc(Cl)c3[nH]ccc23)cc1 [Example 32, 4-(7-chloro-1H-pyrrolo[3,2-c]pyridin-4-yl)-N-(4-hydroxybicyclo[2.2.1]heptan-1-yl)benzamide]",0.91
7,"O=C(N[C@H]1CC[C@H](O)CC1)c1ccc(-c2ncc(F)c3[nH]ccc23)c(F)c1 [Example 39, 3-fluoro-4-(7-fluoro-1H-pyrrolo[3,2-c]pyridin-4-yl)-N-(trans-4-hydroxycyclohexyl)benzamide]",0.65
8,"Cc1cnc(-c2ccc(C(=O)N[C@H]3CC[C@](C)(O)CC3)cc2)c2cc[nH]c12 [Example 2, N-(trans-4-hydroxy-4-methylcyclohexyl)-4-(7-methyl-1H-pyrrolo[3,2-c]pyridin-4-yl)benzamide]",1.3
9,"CC(C)(O)[C@H]1CC[C@H](NC(=O)c2ccc(-c3nccc4[nH]cnc34)cc2)CC1 [Example 44, N-[trans-4-(2-hydroxypropan-2-yl)cyclohexyl]-4-(1H-imidazo[4,5-c]pyridin-4-yl)benzamide]",4
10,"O=C(NC1CCS(=O)(=O)CC1)c1ccc(-c2ncc(Cl)c3[nH]ccc23)cc1 [Example 29, 4-(7-chloro-1H-pyrrolo[3,2-c]pyridin-4-yl)-N-(1,1-dioxotetrahydrothiopyran-4-yl)benzamide]",0.85
11,"Cc1cnc(-c2ccc(C(=O)NC34CCC(O)(CC3)CC4)cc2)c2cc[nH]c12 [Example 1, N-(4-hydroxybicyclo[2.2.2]octan-1-yl)-4-(7-methyl-1H-pyrrolo[3,2-c]pyridin-4-yl)benzamide]",0.99
12,"O=C(NC12CCC(O)(CC1)CC2)c1ccc(-c2nccc3[nH]ccc23)c(F)c1 [Example 6, 3-fluoro-N-(4-hydroxybicyclo[2.2.2]octan-1-yl)-4-(1H-pyrrolo[3,2-c]pyridin-4-yl)benzamide]",1.1
13,"CC(C)(O)[C@H]1CC[C@H](NC(=O)c2ccc(-c3nccc4[nH]ncc34)c(F)c2)CC1 [Example 49, 3-fluoro-N-[trans-4-(2-hydroxypropan-2-yl)cyclohexyl]-4-(1H-pyrazolo[4,3-c]pyridin-4-yl)benzamide]",0.78
14,"CC(C)(O)[C@H]1CC[C@H](NC(=O)c2ccc(-c3nccc4[nH]nnc34)cc2)CC1 [Example 45, 4-(1H-[1,2,3]triazolo[4,5-c]pyridin-4-yl)-N-[trans-4-(2-hydroxypropan-2-yl)cyclohexyl]benzamide]",24
15,"O=C(NC12CCC(O)(CC1)C2)c1ccc(-c2ncc(F)c3[nH]ccc23)c(F)c1 [Example 41, 3-fluoro-4-(7-fluoro-1H-pyrrolo[3,2-c]pyridin-4-yl)-N-(4-hydroxybicyclo[2.2.1]heptan-1-yl)benzamide]",0.89
16,"CC(C)(O)CO[C@H]1CC[C@H](NC(=O)c2ccc(-c3ncc(F)c4[nH]ccc34)cc2)CC1 [Example 22, 4-(7-fluoro-1H-pyrrolo[3,2-c]pyridin-4-yl)-N-[trans-4-(2-hydroxy-2-methylpropoxy)cyclohexyl]benzamide]",2.1
